Data from ChEMBL document CHEMBL1201862, “PubChem BioAssay data set” (2004).
Calls of active or inactive are those of the source.

Assays:
[1] = biological target: T1, DNA repair and recombination protein RAD54-like (Homo sapiens, UniProt Q92698); experiment: RAD54 Holliday junction migration blockers – biochemical, fluorescence, cherry-picked samples, dose series, confirmation (AID 651657); type: functional
T1 sequence (Q92698 whole entry): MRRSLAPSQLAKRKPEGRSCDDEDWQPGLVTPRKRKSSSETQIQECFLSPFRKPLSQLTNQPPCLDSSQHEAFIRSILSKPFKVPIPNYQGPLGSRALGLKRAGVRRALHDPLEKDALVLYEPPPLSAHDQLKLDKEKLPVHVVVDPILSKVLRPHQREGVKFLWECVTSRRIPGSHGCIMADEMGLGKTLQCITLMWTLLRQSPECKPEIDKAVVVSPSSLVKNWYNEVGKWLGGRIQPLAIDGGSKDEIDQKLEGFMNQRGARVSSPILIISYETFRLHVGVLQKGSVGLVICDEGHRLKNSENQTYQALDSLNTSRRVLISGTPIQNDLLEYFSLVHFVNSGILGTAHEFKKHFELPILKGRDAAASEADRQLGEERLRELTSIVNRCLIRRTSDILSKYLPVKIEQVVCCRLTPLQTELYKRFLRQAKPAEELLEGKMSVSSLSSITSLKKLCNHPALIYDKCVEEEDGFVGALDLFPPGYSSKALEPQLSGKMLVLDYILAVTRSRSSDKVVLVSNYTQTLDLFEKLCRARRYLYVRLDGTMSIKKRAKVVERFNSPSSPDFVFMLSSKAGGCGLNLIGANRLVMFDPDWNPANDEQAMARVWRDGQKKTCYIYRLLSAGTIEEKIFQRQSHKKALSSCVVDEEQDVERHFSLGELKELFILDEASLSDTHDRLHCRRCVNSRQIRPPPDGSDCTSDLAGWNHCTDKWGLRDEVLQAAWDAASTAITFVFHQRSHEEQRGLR

[2] = biological target: T2, Ubiquitin-conjugating enzyme E2 N (Homo sapiens, UniProt P61088); type: functional;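 note: Dose-response confirmation in a TR-FRET assay detecting UBC13-driven polyubiquitin chain formation, inhibition measured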
T2 sequence (P61088 whole entry): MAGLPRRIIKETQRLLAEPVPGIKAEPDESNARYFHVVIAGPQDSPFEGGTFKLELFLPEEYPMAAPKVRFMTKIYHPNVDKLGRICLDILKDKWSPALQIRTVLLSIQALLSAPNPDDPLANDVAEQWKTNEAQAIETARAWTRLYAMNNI

[3] = biological target: T3, Short transient receptor potential channel 4 (Mus musculus, UniProt Q9QUQ5); experiment: potentiation of DAMGO-evoked TRPC4 calcium signal – cell-based, HEK293 TRPC4/mu-opioid, Fluo-4 calcium, EC20 DAMGO, dose response (AID 434941); type: functional
T3 sequence (Q9QUQ5 whole entry): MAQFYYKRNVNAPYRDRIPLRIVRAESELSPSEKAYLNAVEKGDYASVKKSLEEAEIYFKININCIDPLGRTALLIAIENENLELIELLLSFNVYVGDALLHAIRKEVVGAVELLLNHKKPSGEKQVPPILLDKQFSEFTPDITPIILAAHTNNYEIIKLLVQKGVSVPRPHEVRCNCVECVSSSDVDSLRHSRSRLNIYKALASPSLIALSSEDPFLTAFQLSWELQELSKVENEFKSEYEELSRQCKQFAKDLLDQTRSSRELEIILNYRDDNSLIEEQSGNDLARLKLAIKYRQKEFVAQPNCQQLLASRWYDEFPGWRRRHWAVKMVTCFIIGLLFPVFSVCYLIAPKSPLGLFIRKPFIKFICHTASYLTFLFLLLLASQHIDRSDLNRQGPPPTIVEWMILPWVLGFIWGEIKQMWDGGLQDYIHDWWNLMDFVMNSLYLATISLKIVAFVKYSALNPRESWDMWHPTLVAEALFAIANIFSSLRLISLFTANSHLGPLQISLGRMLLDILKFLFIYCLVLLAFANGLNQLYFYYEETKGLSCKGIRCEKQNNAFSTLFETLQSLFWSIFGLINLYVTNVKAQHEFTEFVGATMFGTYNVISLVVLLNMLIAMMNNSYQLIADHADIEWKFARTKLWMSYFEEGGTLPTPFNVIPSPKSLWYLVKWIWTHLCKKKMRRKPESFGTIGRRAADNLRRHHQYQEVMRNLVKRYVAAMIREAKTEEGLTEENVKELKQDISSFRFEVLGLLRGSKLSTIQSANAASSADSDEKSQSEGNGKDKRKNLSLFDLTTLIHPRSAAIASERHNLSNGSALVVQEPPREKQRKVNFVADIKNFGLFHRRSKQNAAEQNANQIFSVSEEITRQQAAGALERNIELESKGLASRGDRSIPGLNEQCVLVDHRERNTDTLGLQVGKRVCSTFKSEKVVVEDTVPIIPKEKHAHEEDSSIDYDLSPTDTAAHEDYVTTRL

CAAX prenyl protease 2 = CAAX prenyl protease 2 (Saccharomyces cerevisiae S288c, UniProt Q03530); type: biochemical
Sequence of CAAX prenyl protease 2 (Q03530 whole entry): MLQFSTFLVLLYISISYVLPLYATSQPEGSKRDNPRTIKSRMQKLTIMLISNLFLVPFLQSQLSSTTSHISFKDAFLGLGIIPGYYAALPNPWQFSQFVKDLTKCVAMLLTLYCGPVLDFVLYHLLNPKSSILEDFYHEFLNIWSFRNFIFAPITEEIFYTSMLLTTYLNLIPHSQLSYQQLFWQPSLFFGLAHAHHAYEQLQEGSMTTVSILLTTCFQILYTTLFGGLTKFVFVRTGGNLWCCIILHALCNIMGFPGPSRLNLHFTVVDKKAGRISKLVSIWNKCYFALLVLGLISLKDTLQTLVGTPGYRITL

[4] = viability of uninfected HEp-2 cells – cell-based, HTS, cytotoxicity control for RSV inhibitor project, dose response (AID 2410); type: functional; conditions: human respiratory syncytial virus
Vero [5] = experiment: Vero cell viability after compound exposure – synthesized analogs, set II, cytotoxicity control for West Nile virus antiviral project, SAR follow-up (AID 2402); type: functional; conditions: Chlorocebus sabaeus
Vero [6] = experiment: antiviral protection of cells from WNV – synthesized analogs, SAR follow-up (AID 2238); type: functional, cell-based; conditions: Chlorocebus sabaeus
Vero [7] = experiment: inhibition of WNV-induced cytopathic effect – cell-based, CPE readout (AID 1621); type: functional; conditions: Chlorocebus sabaeus
Vero [8] = experiment: cells; type: functional, cell-based; conditions: Chlorocebus sabaeus
[9] = A Cell Based Assay for the Identification of Probe candidate Compounds with Anti- Venezuelan Equine Encephalitis virus. [Related pubchem assays: 2409, 2419, 1621, 2238, 2405, 2024, 2065, 2402, 2414, 1635, 1650, 2244 ]; type: functional
Vero [10] = experiment: host cell viability loss, Vero E6 – synthesized analogs, cytotoxicity control for West Nile virus antiviral project, SAR follow-up (AID 2244); type: functional; conditions: Chlorocebus sabaeus
[11] = biological target: Endoplasmic reticulum aminopeptidase 1 (Homo sapiens, UniProt Q9NZ08); experiment: inhibition of human ERAP1 enzyme activity – biochemical, cherry-pick, set 2, plate reader, dose response (AID 743314)
Sequence of Endoplasmic reticulum aminopeptidase 1 (Q9NZ08 whole entry): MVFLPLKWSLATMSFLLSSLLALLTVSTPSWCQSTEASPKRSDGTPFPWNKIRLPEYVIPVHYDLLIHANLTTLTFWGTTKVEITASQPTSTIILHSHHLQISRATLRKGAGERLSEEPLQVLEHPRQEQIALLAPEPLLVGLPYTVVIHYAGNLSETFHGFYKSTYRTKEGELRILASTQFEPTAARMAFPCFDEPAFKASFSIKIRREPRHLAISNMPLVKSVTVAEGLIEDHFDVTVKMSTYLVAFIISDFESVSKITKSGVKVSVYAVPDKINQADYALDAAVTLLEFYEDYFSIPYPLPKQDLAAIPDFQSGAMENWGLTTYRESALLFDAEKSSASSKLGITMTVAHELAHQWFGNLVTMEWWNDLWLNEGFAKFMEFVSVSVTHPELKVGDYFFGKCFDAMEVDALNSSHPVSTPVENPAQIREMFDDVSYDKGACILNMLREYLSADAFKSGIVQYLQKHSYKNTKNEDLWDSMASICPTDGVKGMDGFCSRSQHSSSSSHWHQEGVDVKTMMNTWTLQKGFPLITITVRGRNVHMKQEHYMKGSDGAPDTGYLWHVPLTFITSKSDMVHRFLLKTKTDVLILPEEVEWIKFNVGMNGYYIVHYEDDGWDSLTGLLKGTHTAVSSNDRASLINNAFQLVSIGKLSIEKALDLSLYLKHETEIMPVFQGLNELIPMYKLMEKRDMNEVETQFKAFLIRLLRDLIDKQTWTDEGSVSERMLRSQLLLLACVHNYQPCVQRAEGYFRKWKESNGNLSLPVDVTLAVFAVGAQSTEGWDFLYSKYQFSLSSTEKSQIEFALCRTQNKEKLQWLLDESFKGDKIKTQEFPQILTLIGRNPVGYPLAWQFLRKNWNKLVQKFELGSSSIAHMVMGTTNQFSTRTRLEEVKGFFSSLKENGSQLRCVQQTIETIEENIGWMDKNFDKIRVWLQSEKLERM

Vero [12] = experiment: cells; type: functional; conditions: Chlorocebus sabaeus
Vero [13] = experiment: Vero 76 cell viability after compound exposure – Vero 76 cells, synthesized analogs, cytotoxicity control for West Nile virus antiviral project, SAR follow-up (AID 2414); type: functional; conditions: Chlorocebus sabaeus
Cytochrome P450 2C19 = Cytochrome P450 2C19 (Homo sapiens, UniProt P33261); experiment: Cytochrome panel assay with activity outcomes. Panel member name: p450-cyp2c19 Compounds with AC50 equal or less than 10 uM are considered active; type: functional; conditions: read-out: AC50
Sequence of Cytochrome P450 2C19 (P33261 whole entry): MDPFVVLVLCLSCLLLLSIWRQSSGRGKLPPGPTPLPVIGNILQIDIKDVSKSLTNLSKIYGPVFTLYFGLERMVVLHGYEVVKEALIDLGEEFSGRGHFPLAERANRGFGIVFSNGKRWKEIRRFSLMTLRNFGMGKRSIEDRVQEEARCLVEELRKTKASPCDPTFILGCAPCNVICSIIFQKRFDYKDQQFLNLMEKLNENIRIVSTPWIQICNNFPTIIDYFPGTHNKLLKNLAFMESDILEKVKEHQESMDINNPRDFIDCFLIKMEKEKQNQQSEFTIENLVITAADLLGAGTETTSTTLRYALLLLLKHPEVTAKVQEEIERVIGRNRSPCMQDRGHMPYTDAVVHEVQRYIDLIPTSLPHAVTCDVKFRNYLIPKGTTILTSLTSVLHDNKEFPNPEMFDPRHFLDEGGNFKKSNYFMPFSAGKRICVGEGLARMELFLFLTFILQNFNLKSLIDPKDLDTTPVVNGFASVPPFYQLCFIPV

[14] = biological target: T4, G-protein coupled receptor 35 (Homo sapiens, UniProt Q9HC97); experiment: SAR analysis of Agonists of the GPR35 Receptor using an Image-Based Assay - Set 2. [Related pubchem assays (depositor defined):AID2013, AID2026]; type: functional
T4 sequence (Q9HC97 whole entry): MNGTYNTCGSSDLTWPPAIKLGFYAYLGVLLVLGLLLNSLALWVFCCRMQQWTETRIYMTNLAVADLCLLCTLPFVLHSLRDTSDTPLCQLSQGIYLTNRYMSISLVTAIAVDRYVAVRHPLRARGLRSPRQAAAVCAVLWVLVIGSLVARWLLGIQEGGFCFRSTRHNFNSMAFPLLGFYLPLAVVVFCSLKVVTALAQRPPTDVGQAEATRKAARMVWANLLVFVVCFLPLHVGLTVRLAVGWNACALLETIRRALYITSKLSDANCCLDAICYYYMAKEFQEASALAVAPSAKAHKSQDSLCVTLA

[15] = biological target: T5, G-protein coupled receptor 55 (Homo sapiens, UniProt Q9Y2T6); experiment: inhibition of LPI-stimulated GPR55 beta-arrestin translocation – imaging, U2OS, beta-arrestin-GFP, LPI agonist, primary screen (AID 2013); type: functional;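 note: antagonist potency measured as reduced agonist-driven arrestin aggregation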
T5 sequence (Q9Y2T6 whole entry): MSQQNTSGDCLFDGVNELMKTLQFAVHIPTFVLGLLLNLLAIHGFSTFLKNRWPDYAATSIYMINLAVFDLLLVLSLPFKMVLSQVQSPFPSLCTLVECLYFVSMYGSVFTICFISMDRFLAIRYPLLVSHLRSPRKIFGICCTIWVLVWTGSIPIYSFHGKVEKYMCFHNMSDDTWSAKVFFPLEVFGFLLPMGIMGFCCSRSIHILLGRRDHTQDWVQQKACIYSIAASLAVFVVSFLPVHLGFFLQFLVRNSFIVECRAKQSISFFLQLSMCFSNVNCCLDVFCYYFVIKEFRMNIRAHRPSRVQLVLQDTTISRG

Cannabinoid receptor 1 [16] = biological target: T6, Cannabinoid receptor 1 (Homo sapiens, UniProt P21554); experiment: SAR analysis of antagonists of the Cannabinoid Receptor 1 using an Image-Based Assay - Set 2. [Related pubchem assays (depositor defined):AID2013, AID2026]; type: functional
T6 sequence (P21554 whole entry): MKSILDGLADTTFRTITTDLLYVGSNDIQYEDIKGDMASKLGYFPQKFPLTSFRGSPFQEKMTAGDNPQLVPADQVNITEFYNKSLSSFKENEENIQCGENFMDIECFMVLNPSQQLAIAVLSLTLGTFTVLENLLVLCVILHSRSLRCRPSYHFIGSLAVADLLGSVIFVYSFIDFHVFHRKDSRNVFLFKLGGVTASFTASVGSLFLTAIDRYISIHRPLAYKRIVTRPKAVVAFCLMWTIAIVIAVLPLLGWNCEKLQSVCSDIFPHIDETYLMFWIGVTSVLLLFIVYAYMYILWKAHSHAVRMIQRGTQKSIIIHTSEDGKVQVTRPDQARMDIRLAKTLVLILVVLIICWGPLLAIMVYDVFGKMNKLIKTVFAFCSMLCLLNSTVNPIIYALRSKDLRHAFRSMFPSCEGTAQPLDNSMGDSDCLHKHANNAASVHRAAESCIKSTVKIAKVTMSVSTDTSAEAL

Cannabinoid receptor 2 [17] = biological target: T7, Cannabinoid receptor 2 (Homo sapiens, UniProt P34972); experiment: SAR analysis of agonists of the Cannabinoid Receptor 2 using an Image-Based Assay. [Related pubchem assays (depositor defined):AID2013, AID2026]; type: functional
T7 sequence (P34972 whole entry): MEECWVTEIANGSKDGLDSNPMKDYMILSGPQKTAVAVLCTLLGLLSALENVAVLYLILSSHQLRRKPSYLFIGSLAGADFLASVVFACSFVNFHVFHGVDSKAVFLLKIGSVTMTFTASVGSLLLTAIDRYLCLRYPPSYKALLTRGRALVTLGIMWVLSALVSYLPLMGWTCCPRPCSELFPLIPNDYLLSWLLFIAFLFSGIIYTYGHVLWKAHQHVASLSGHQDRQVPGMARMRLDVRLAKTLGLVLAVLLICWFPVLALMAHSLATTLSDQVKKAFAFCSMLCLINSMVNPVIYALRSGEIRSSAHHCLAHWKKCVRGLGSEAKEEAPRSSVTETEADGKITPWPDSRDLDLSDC

Cannabinoid receptor 1 [18] = biological target: T6, Cannabinoid receptor 1; experiment: SAR analysis of agonists of the Cannabinoid Receptor 1 using an Image-Based Assay - Set 2. [Related pubchem assays (depositor defined):AID2013, AID2026]; type: functional
Cannabinoid receptor 2 [19] = biological target: T7, Cannabinoid receptor 2; experiment: SAR analysis of antagonists of the Cannabinoid Receptor 2 using an Image-Based Assay. [Related pubchem assays (depositor defined):AID2013, AID2026]; type: functional
Cytochrome P450 3A4 = Cytochrome P450 3A4 (Homo sapiens, UniProt P08684);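 note: CYP3A4 tested as one member of a cytochrome P450 panel screen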
Sequence of Cytochrome P450 3A4 (P08684 whole entry): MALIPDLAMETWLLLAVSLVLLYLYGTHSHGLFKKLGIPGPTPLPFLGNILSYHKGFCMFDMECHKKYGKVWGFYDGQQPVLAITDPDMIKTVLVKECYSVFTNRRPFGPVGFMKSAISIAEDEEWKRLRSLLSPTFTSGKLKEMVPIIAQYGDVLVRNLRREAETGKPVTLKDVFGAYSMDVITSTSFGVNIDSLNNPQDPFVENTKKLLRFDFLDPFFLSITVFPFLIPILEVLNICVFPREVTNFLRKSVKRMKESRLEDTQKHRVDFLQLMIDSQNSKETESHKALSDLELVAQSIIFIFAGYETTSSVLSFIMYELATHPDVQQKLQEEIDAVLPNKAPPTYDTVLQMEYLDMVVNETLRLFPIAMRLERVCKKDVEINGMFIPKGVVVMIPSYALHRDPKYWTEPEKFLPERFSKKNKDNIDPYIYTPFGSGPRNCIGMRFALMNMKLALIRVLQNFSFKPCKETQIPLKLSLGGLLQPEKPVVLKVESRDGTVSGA

[20] = biological target: T5, G-protein coupled receptor 55; experiment: blockade of LPI-induced GPR55 arrestin translocation – imaging, U2OS, beta-arrestin-GFP, LPI agonist, set 2, SAR follow-up (AID 2820); type: functional
[21] = biological target: T4, G-protein coupled receptor 35; experiment: SAR analysis of Antagonists of the GPR35 Receptor using an Image-Based Assay - Set 3. [Related pubchem assays (depositor defined):AID2013, AID2026]; type: functional
[22] = biological target: Dual specificity protein phosphatase 3 (Homo sapiens, UniProt P51452); experiment: SAR VHR1 Fluorescent Assay for In Vitro dose response studies Set 2. [Related pubchem assays (depositor defined):AID1654, AID1661, AID1878]; type: functional
Sequence of Dual specificity protein phosphatase 3 (P51452 whole entry): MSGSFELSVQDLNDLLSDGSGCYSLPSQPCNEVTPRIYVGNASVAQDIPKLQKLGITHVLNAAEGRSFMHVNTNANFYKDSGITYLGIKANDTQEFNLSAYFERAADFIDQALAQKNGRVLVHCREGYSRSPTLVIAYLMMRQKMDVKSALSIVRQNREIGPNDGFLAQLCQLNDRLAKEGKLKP

[23] = biological target: Tyrosine-protein phosphatase non-receptor type 7 (Homo sapiens, UniProt P35236); experiment: SAR analysis of chemical inhibitors of HePTP using a Fluorescent assay - Set 2. [Related pubchem assays (depositor defined):AID1059, AID1077, AID1661, AID2085, AID521]; type: functional
Sequence of Tyrosine-protein phosphatase non-receptor type 7 (P35236 whole entry): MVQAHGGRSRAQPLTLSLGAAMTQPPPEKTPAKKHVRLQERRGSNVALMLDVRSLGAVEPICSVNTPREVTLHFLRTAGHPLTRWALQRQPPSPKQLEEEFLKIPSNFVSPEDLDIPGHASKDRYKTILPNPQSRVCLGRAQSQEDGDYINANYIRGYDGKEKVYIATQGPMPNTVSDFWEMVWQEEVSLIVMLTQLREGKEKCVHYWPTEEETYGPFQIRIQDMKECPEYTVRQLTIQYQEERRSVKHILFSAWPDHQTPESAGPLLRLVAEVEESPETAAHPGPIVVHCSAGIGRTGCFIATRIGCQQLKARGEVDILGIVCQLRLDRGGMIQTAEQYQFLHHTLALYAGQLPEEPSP

For `CCCCN(C)CCNC(=O)c1cc2c(-c3cccc(OC)c3)nn(C)c2s1`, the AC50 [1] was 31.5 µM (active), the IC50 [2] was > 20 µM (inactive) and the EC50 [3] was 0.07 µM (active). For the same molecule, the AC50 (CAAX prenyl protease 2) was 16 µM (active).
With `CC1CCCC(C)N1CCCNC(=O)c1cc2c(s1)-c1ccccc1OC2` (stereo unspecified) the CC50 [4] was 18.2 µM (active), the CC50 (Vero [5]) was 11 µM (active) and the IC50 (Vero [6]) was > 40 µM (active). The IC50 (Vero [7]) was 19 µM (active), the IC50 (Vero [8]) was > 25 µM (active) and the IC50 [9] was 11.8 µM (active). The CC50 (Vero [10]) was 12.4 µM (active), the AC50 [11] was 12.5 µM (active) and the CC50 (Vero [12]) was > 25 µM (active). The CC50 (Vero [13]) was 24.3 µM (active).
With `Cc1cc(C)c2nc(-c3ccccn3)cc(C(=O)Nc3ccc(S(=O)(=O)Nc4cc(C)on4)cc3)c2c1` the AC50 (Cytochrome P450 2C19) was 17.8 µM (inconclusive), the EC50 [14] was > 32 µM (inactive) and the IC50 [15] was 1.82 µM (active). The IC50 (Cannabinoid receptor 1 [16]) was > 32 µM (inactive), the EC50 (Cannabinoid receptor 2 [17]) was > 32 µM (inactive) and the EC50 (Cannabinoid receptor 1 [18]) was > 32 µM (inactive). The IC50 (Cannabinoid receptor 2 [19]) was > 32 µM (inactive), the AC50 (Cytochrome P450 3A4) was 17.8 µM (inconclusive) and the IC50 [20] was 0.709 µM (active). For the same molecule, the IC50 [21] was > 32 µM (inactive).
With `Nc1c(C(=O)N2CCOCC2)sc(=S)n1-c1ccccc1` the IC50 [22] was 85.5 µM (active) and the IC50 [23] was > 100 µM (inactive).
